Paper PMC11212140, “Molecular Bidents with Two Electrophilic Warheads as a New Pharmacological Modality” (ACS Central Science, 2024)

Columns and labels:
Assay in all cases: KiNativ profiling in H3255 cells
Format in all cases: cell-based, human
[1] = test system: CK1g1, CK1g2, CK1g3; conditions: 2.5 µM; ATP Loop; KIGCGNFGELR
Procedure: (§1) treatment. Cell viability was determined by using CellTiter-Glo (Promega #G7571) according to the manufacturer’s instructions, measuring luminescence using an Envision plate-reader (PerkinElmer Inc.). Dose-response curves were generated using non-linear regression curve fit in GraphPad Prism 9.2.0(GraphPad Software).
(§2) Cellular target engagement assays
(§3) After 6 hours treatment, cells were pelleted, washed with PBS once and lysed with IP lysis buffer (25mMTris-HCl pH 7.4, 150mM NaCl, 1 mM EDTA, 1% NP-40 and 5% glycerol) (Thermo Fisher Scientific, Cat#87788) containing protease/phosphatase inhibitor cocktail (Roche). The protein concentrations were measured by BCA analysis (Pierce). Cell lysates were incubated with 1 μM of biotin conjugated probe (bio-Osimertinib or bio-ZNL-0013) at 4 ℃ overnight, and incubated for 3 more hours at room temperature. Lysates with probe were then incubated with streptavidin beads (Thermo Fisher, #20349) for 2 hours at 4 ℃. The protein-probe complexes on the beads were then subjected to immunoblotting.
(§4) H3255 cells were plated with 6.5x10^6 per condition in fresh media in 15 cm plates and treated the 80% confluency for 2 hours with DMSO or 2.5 μM of ZNL-0056. To harvest cells, plates were washed 3 times with cold PBS, then collected by scraping into 4 mL of cold PBS containing protease and phosphatase inhibitors. Cells were pelleted by centrifugation at 1350 g at 4 ℃ for 5 minutes and immediately frozen in liquid nitrogen. The frozen samples were sent to ActivX Biosciences (La Jolla, CA) for the remainder of the KiNativ profiling experiment4.
(§5) Protein expression and purification
(§6) Human EGFR kinase domain (residues 696-1022) with T790M and V948R mutations was cloned with an N-terminal, protease cleavable His -GST tag. Recombinant protein was expressed in SF9 insect cells using baculovirus generated from the pFastBac system (Thermo Fisher) .
(§7) Briefly, cells at a density of ~2x10^6 cells/mL were infected with 1% (v/v) virus stock and grown for ~72 hours before harvesting and freezing the cell pellet . Infected cells were lysed in buffer A (50 mM Tris pH 8.0, 500 mM NaCl, 5% glycerol, 0.5 mM Tris(2-carboxyethyl)phosphine [TCEP]), ultracentrifuged at >200,000 rcf for 1 h, and the supernatant flo wed through Ni-NTA resin by gravity. The resin was washed with buffer A supplemented with 40 mM imidazole by […]

[2] = test system: T1, CK1g3; conditions: 2.5 µM; Lys2; DVKPENFLIGRPGNK
T1 construct: purchased ActivX Biosciences (KiNativ)
Procedure: as §1, §2, §3, §4, §5, §6, §7

[3] = test system: DRAK1, DRAK2; conditions: 2.5 µM; ATP Loop; GKFAVVR
Procedure: as §1, §2, §3, §4, §5, §6, §7

[4] = test system: T2, EGFR, EGFR-L858R; conditions: 2.5 µM
T2 construct: purchased ActivX Biosciences (KiNativ)
Procedure: as §1, §2, §3, §4, §5, §6, §7

[5] = test system: T3, EphB4; conditions: 2.5 µM; Activation Loop; FLEENSSDPTYTSSLGGKIPIR
T3 construct: purchased ActivX Biosciences (KiNativ)
Procedure: as §1, §2, §3, §4, §5, §6, §7

[6] = test system: T4, Erk5; conditions: 2.5 µM; Lys2; DLKPSNLLVNENCELK
T4 construct: purchased ActivX Biosciences (KiNativ)
Procedure: as §1, §2, §3, §4, §5, §6, §7

[7] = test system: T5, GCK; conditions: 2.5 µM
T5 construct: purchased ActivX Biosciences (KiNativ)
Procedure: as §1, §2, §3, §4, §5, §6, §7

[8] = test system: T6, IKKa; conditions: 2.5 µM; Lys2; DLKPENIVLQDVGGK
T6 construct: purchased ActivX Biosciences (KiNativ)
Procedure: as §1, §2, §3, §4, §5, §6, §7

[9] = test system: T7, ITPK1; conditions: 2.5 µM; ATP; NFSAGTSDRESIFFNSHNVSKPESSSVLTELDKIEGVFERPSDEVIR
T7 construct: purchased ActivX Biosciences (KiNativ)
Procedure: as §1, §2, §3, §4, §5, §6, §7

[10] = test system: T8, MAP2K7; conditions: 2.5 µM; Lys2; DVKPSNILLDER
T8 construct: purchased ActivX Biosciences (KiNativ)
Procedure: as §1, §2, §3, §4, §5, §6, §7

[11] = test system: T9, MAP4K3; conditions: 2.5 µM
T9 construct: purchased ActivX Biosciences (KiNativ)
Procedure: as §1, §2, §3, §4, §5, §6, §7

[12] = test system: T10, MASTL; conditions: 2.5 µM
T10 construct: purchased ActivX Biosciences (KiNativ)
Procedure: as §1, §2, §3, §4, §5, §6, §7

[13] = test system: T11, MPSK1; conditions: 2.5 µM; Lys2; DLKPTNILLGDEGQPVLMDLGSMNQACIHVEGSR
T11 construct: purchased ActivX Biosciences (KiNativ)
Procedure: as §1, §2, §3, §4, §5, §6, §7

[14] = test system: T12, MRCKb; conditions: 2.5 µM; Lys2; DIKPDNVLLDVNGHIR
T12 construct: purchased ActivX Biosciences (KiNativ)
Procedure: as §1, §2, §3, §4, §5, §6, §7

[15] = test system: T13, MSK1 domain1; conditions: 2.5 µM; Lys2; DIKLENILLDSNGHVVLTDFGLSK
T13 construct: MSK1 domain1; purchased ActivX Biosciences (KiNativ)
Procedure: as §1, §2, §3, §4, §5, §6, §7

[16] = test system: T14, NEK9; conditions: 2.5 µM
T14 construct: purchased ActivX Biosciences (KiNativ)
Procedure: as §1, §2, §3, §4, §5, §6, §7

[17] = test system: T15, NuaK1; conditions: 2.5 µM; Lys1; VVAIKSIR
T15 construct: purchased ActivX Biosciences (KiNativ)
Procedure: as §1, §2, §3, §4, §5, §6, §7

[18] = test system: T16, PCTAIRE2; conditions: 2.5 µM; Lys2; DLKPQNLLINEK
T16 construct: purchased ActivX Biosciences (KiNativ)
Procedure: as §1, §2, §3, §4, §5, §6, §7

[19] = test system: T17, PIP4K2B; conditions: 2.5 µM; ATP; AKDLPTFKDNDFLNEGQK
T17 construct: purchased ActivX Biosciences (KiNativ)
Procedure: as §1, §2, §3, §4, §5, §6, §7

[20] = test system: T18, PIP4K2C; conditions: 2.5 µM, ATP
T18 construct: purchased ActivX Biosciences (KiNativ)
Procedure: as §1, §2, §3, §4, §5, §6, §7

[21] = test system: T19, PITSLRE; conditions: 2.5 µM; Lys2; DLKTSNLLLSHAGILK
T19 construct: purchased ActivX Biosciences (KiNativ)
Procedure: as §1, §2, §3, §4, §5, §6, §7

[22] = test system: T20, PKD3; conditions: 2.5 µM
T20 construct: purchased ActivX Biosciences (KiNativ)
Procedure: as §1, §2, §3, §4, §5, §6, §7

[23] = test system: T21, TAO2; conditions: 2.5 µM; Lys2; DVKAGNILLSEPGLVK
T21 construct: purchased ActivX Biosciences (KiNativ)
Procedure: as §1, §2, §3, §4, §5, §6, §7

Compound	Inhibition [1] [%]	Inhibition [2] [%]	Inhibition [3] [%]	Inhibition ([4]; Lys1, IPVAIKELR) [%]	Inhibition [5] [%]	Inhibition [6] [%]	Inhibition ([7]; Lys1, DTVTSELAAVKIVK) [%]	Inhibition ([7]; Lys2, DIKGANLLLTLQGDVK) [%]	Inhibition [8] [%]	Inhibition [9] [%]	Inhibition [10] [%]	Inhibition ([11]; Lys1, NVNTGELAAIKVIK) [%]	Inhibition ([11]; Lys2, DIKGANILLTDNGHVK) [%]	Inhibition ([12]; ATP Loop, GAFGKVYLGQK) [%]	Inhibition ([12]; Lys1, LYAVKVVK) [%]	Inhibition [13] [%]	Inhibition [14] [%]	Inhibition [15] [%]	Inhibition ([16]; Activation Loop, LGDYGLAKK) [%]	Inhibition ([16]; Lys1, RTEDDSLVVWKEVDLTR) [%]	also measured
C=CC(=O)Nc1cc(C(=O)Nc2nc3cccc(C)c3n2[C@@H]2CCCCN(C(=O)C=C)C2)cs1 [ZNL-0056]	13.6	18.0	46.6	94.3	-4.5	-18.2	-6.8	0.9	5.3	-0.632	90.7	9.4	21.1	13.0	16.2	7.6	14.5	10.0	-6.5	3.2	Inhibition ([4]; Activation Loop, LLGAEEKEYHAEGGKVPIK): 83.2%; Inhibition ([16]; Lys2, DIKTLNIFLTK): 4.4%; Inhibition [17]: 17.0%; Inhibition [18]: -15.1%; Inhibition [19]: 16.6%; Inhibition ([20]; TLVIKEVSSEDIADMHSNLSNYHQYIVK): 60.9%; Inhibition ([20]; VKELPTLKDMDFLNK): 53.5%; Inhibition [21]: 20.7%; Inhibition ([22]; Lys1, DVAIKVIDK): -14.1%; Inhibition ([22]; Lys2, NIVHCDLKPENVLLASAEPFPQVK): 3.5%; Inhibition [23]: -4.5%
C=CC(=O)Nc1cc(Nc2nccc(-c3cn(C)c4ccccc34)n2)c(OC)cc1N(C)CCN(C)C [Osimertinib, osimertinib, reference compound]	-14.3	7.1	13.6	96.8	19.2	-4.1	-23.8	15.4	-19.3	22.9	-1.4	-4.2	3.2	16.6	23.8	0.8	-26.5	-10.4	-11.0	-18.7	Inhibition ([4]; Activation Loop, […]): 90.8%; Inhibition ([16]; Lys2, DIKTLNIFLTK): -12.2%; Inhibition [17]: 2.8%; Inhibition [18]: 2.6%; Inhibition [19]: -4.2%; Inhibition ([20]; TLVIKEVSSEDIADMHSNLSNYHQYIVK): 59.0%; Inhibition ([20]; VKELPTLKDMDFLNK): 55.5%; Inhibition [21]: -3.8%; Inhibition ([22]; Lys1, DVAIKVIDK): -11.4%; Inhibition ([22]; Lys2, NIVHCDLKPENVLLASAEPFPQVK): -11.6%; Inhibition [23]: 8.2%
